Calls of active or inactive are those of the source. Rule as the data show it, for most assays here: actives have a measured IC50 and inactives only a lower limit.
Columns and labels:
[1] = system: INS1; assay: INS-1E mitochondrial potential rescue under cytokines – cell-based, JC-1 fluorescence ratio, dry powder, dose response (AID 488931); format: functional; settings: Rattus norvegicus
[2] = system: INS1; assay: INS-1E mitochondrial potential loss inhibitors – cell-based, JC-1 fluorescence, dry powder, set 2, dose response (AID 488867); format: functional; settings: Rattus norvegicus
[3] = molecular target: Dual specificity protein kinase CLK1 (Homo sapiens, UniProt P49759); assay: inhibition of human CLK1 activity – biochemical, cherry-picked samples, selectivity assay for Dyrk1A inhibitor project, dose response (AID 588811)
Sequence of Dual specificity protein kinase CLK1 (P49759 whole entry): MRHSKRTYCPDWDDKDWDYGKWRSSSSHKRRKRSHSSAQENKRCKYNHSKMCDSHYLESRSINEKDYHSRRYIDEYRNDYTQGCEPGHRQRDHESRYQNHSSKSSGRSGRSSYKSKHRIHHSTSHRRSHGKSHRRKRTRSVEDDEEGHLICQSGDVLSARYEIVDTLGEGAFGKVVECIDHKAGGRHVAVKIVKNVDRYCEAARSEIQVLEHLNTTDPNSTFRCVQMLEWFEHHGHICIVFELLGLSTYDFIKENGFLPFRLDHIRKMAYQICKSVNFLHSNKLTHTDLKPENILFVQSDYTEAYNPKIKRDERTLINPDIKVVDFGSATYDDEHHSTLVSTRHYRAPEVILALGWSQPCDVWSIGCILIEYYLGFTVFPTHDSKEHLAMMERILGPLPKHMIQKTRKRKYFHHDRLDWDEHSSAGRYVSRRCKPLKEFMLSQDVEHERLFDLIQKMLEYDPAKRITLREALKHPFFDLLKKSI

[4] = molecular target: Cyclin-dependent kinase 2 (Homo sapiens, UniProt P24941); assay: inhibition of human CDK2/cyclin A – biochemical, cherry-picked samples, selectivity assay for Dyrk1A inhibitor project, dose response (AID 602127)
[5] = molecular target: T1, Dual specificity protein phosphatase 6 (Rattus norvegicus, UniProt Q64346); format: functional
T1 sequence (Q64346 whole entry): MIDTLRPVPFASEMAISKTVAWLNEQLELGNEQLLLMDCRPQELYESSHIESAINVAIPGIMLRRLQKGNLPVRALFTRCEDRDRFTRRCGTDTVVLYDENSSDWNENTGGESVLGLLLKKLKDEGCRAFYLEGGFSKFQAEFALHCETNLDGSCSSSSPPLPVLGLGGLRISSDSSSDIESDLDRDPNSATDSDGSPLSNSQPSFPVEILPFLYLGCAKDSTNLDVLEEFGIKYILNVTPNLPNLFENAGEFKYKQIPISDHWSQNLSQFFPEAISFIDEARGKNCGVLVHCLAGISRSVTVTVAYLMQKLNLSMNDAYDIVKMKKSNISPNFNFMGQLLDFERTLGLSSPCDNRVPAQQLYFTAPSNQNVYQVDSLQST

[6] = molecular target: Glyceraldehyde-3-phosphate dehydrogenase (Homo sapiens, UniProt P04406)
Sequence of Glyceraldehyde-3-phosphate dehydrogenase (P04406 whole entry): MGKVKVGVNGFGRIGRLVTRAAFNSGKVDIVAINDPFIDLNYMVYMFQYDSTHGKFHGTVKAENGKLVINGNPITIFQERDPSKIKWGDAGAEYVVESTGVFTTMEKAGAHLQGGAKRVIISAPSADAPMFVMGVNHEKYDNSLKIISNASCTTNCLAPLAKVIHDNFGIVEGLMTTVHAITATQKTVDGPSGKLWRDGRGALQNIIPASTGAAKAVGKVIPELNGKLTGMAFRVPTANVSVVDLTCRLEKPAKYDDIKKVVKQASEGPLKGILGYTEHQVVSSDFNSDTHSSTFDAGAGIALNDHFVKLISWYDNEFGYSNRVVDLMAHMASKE

[7] = molecular target: T1, Dual specificity protein phosphatase 6
[8] = molecular target: T2, Tyrosine-protein phosphatase non-receptor type 7 (Homo sapiens, UniProt P35236); format: functional
T2 sequence (P35236 whole entry): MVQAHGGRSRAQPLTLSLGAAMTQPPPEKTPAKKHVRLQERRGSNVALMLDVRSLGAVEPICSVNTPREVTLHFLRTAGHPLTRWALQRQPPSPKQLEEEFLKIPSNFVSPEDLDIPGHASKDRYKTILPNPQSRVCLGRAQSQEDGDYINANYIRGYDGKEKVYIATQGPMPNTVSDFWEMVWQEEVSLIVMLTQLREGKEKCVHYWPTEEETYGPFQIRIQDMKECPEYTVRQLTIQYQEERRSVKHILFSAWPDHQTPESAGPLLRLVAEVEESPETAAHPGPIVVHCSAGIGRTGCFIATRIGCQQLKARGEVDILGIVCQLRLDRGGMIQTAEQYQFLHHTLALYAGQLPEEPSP

[9] = molecular target: Dual specificity protein phosphatase 3 (Homo sapiens, UniProt P51452); assay: SAR VHR1 Fluorescent Assay for In Vitro dose response studies Set 3. [Related pubchem assays (depositor defined):AID1654, AID1661, AID1878]; format: functional
Sequence of Dual specificity protein phosphatase 3 (P51452 whole entry): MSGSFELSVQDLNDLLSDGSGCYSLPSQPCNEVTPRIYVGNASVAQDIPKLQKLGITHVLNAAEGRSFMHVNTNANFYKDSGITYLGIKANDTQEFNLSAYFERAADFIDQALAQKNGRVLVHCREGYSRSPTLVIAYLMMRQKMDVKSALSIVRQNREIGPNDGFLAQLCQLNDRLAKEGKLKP

C[C@@H]1CN([C@@H](C)CO)C(=O)c2cccc(NC(=O)Nc3cccc4ccccc34)c2O[C@H]1CN(C)S(=O)(=O)c1ccc2c(n1)N(C)CCO2
AC50 [1]: 61.1 µM (active)
AC50 [2]: 69.4 µM (active)

Cc1ccc(CN(C)c2ncnc3ccc(-c4ccc5c(c4)OCO5)cc23)o1
AC50 [3]: < 0.00195 µM (active)
AC50 [4]: 11.3 µM (active)

COCCCNc1nc(=O)n(-c2ccc(C)cc2)c(=O)[nH]1
IC50 [5]: > 100 µM (inactive)
IC50 [6]: > 100 µM (not active)
IC50 [7]: > 100 µM (inactive)
IC50 [8]: > 100 µM (not active)

COc1cccc2sc(NC(=O)c3cccc(C(F)(F)F)c3)nc12
IC50 [9]: > 66 µM (inactive)

— ChEMBL document CHEMBL1201862, “PubChem BioAssay data set” (2004)
